Assay results: US8981131B2, “Tricyclic compounds for the treatment of inflammatory disorders” (Piramal Enterprises Limited, priority 2007, dated 2015)
Counter-ions that a name gives are not always drawn.

Experiments:
Details in all cases: LPS (1 μg/mL)-stimulated hPBMCs, 5 hours, ELISA
IL-6 = IL-6 released by LPS-stimulated hPBMCs; format: cell-based, Human
Experimental: (§1) TNF-α production by lipopolysaccharides (LPS) in hPBMCs was measured according to the method described by Jansky, L. et al (Physiol. Res. 52: 593-598, 2003), incorporated herein by reference. Blood was collected from healthy donors into Potassium EDTA vacutainer tubes (BD vacutainer). The PBMCs were isolated using gradient centrifugation in Histopaque-1077 solution (Sigma). Isolated PBMCs were suspended in RPMI 1640 culture medium (Gibco BRL, Pasley, UK) containing 10% fetal bovine serum (FBS) (Hyclone, Utah, USA), 100 U/ml penicillin (Sigma Chemical Co. St Louis, Mo.) and 100 μg/ml streptomycin (Sigma Chemical Co. St Louis, Mo.). The cell concentration was adjusted to 1×10^6 cells/mL. The viability as determined by trypan blue dye exclusion was uniformly ≧98%. The cell suspension (100 μL) was added to the wells of a 96-well culture plate. Following cell plating, 79 μL of the culture medium and 1 μL of eight different concentrations of the test compounds (final concentration 0.03, 0.1, 0.3, 1, 3, 10, 30, 100 μM) dissolved in DMSO (dimethylsulfoxide, Sigma, Mo., USA) were added to the cells. The final concentration of DMSO was adjusted to 0.5%. The vehicle (0.5% DMSO) was used as control. Rolipram (30, 100 μM) was used as a standard compound. The plates were incubated for 30 min at 37° C. in an atmosphere of 5% CO2. Finally, 20 μL (10 μg/mL) per well of LPS, (Escherchia coli 0127:B8, Sigma Chemical Co., St. Louis, Mo.) was added, for a final concentration of 1 μg/mL. The plates were incubated at 37° C. for 5 hours in an atmosphere of 5% CO2. To assess the cytotoxic effect of the test compounds, the cellular viability test was performed using MTS (3-(4,5-dimethylthiazol-2-yl)-5-(3-carboxymethoxyphenyl)-2-(4-sulfonyl)-2H-tetrazolium) reagent after 5 hours of incubation. Supernatants were harvested and assayed for TNF-α, IL-1β, IL-6 and IL-8 by ELISA as described by the manufacturer. (OptiEIA ELISA sets, BD Biosciences, Pharmingen). The 50% inhibitory concentration (IC50) values were calculated by a nonlinear regression method using GraphPad software (Prism 3.03)

IL-8 = IL-8 released by LPS-stimulated hPBMCs; format: cell-based, Human
Experimental: as §1

IL-1β = IL-1β released by LPS-stimulated hPBMCs; format: cell-based, Human
Experimental: as §1

TNF-α = TNF-α inhibition in LPS-stimulated human peripheral blood mononuclear cells (primary screening); format: cell-based
Experimental: as §1

Row | SMILES | IC50 (TNF-α; Homo sapiens, PBMC) | other results
1 | CC1=C2[C@@H]3OC(=O)C(CN4CCN(Cc5ccccc5F)CC4)C3(O)CC[C@@]2(C)CCC1 (stereo partly drawn) [Compound of example 33, (5aR,9bS)-3-((4-(2-fluorobenzyl)piperazin-1-yl)methyl)-3a-hydroxy-5a,9-dimethyl-3,3a,4,5,5a,6,7,8-octahydronaphtho[1,2-b]furan-2(9bH)-one] | 0.3 µM | 
2 | CC1=C2[C@@H]3OC(=O)C(CN4CCOCC4)C3(O)CC[C@@]2(C)CCC1 (stereo partly drawn) [Compound of example 22, (5aR,9bS)-3a-Hydroxy-5a,9-dimethyl-3-(morpholinomethyl)-3,3a,4,5,5a,6,7,8-octahydronaphtho[1,2-b]furan-2(9bH)-one] | 0.7 µM | 
3 | CC12CCCC3(C)OC13C1OC(=O)C(CN3CCCCC3)C1(O)CC2 (centres unmarked) [Compound of example 18, 13-(Piperidin-1-yl)-4,5-epoxy-7-hydroxyeudesm-6,12-olide] |  | IC50 (IL-6): 0.9 µM; IC50 (IL-8): 9.2 µM; IC50 (IL-1β): 0.2 µM; IC50 (TNF-α): 0.4 µM
4 | CC1=C2[C@@H]3OC(=O)C(CN4CCCCC4)C3(O)CC[C@@]2(C)CCC1 (stereo partly drawn) [Compound of example 17, (5aR,9bS)-3a-Hydroxy-5a,9-dimethyl-3-(piperidin-1-ylmethyl)-3,3a,4,5,5a,6,7,8-octahydronaphtho[1,2-b]furan-2(9bH)-one] | 0.7 µM | IC50 (IL-6; Homo sapiens): 3 µM; IC50 (IL-8; Homo sapiens): 27.6 µM; IC50 (IL-1β; Homo sapiens): 0.26 µM
5 | CC(=O)OCC1(O)C(=O)O[C@H]2C3=C(C)CCC[C@]3(C)CCC21O (stereo partly drawn) [Compound of example 3, ((5aR,9bS)-3,3a-Dihydroxy-5a,9-dimethyl-2-oxo-2,3,3a,4,5,5a,6,7,8,9b-decahydronaphtho[1,2-b]furan-3-yl)methyl acetate] | 0.5 µM | 
6 | CC1=C2[C@@H]3OC(=O)C(CN4CCN(Cc5c(C)cccc5C)CC4)C3(O)CC[C@@]2(C)CCC1 (stereo partly drawn) [Compound of example 30, (5aR,9bS)-3-((4-(2,6-dimethylbenzyl)piperazin-1-yl)methyl)-3a-hydroxy-5a,9-dimethyl-3,3a,4,5,5a,6,7,8-octahydronaphtho[1,2-b]furan-2(9bH)-one] | 0.8 µM | 
7 | CC1=C2[C@@H]3OC(=O)C(CN4CCN(Cc5c(F)cccc5C(F)(F)F)CC4)C3(O)CC[C@@]2(C)CCC1 (stereo partly drawn) [Compound of example 36, (5aR,9bS)-3-((4-(2-fluoro-6-(trifluoromethyl)benzyl)piperazin-1-yl)methyl)-3a-hydroxy-5a,9-dimethyl-3,3a,4,5,5a,6,7,8-octahydronaphtho[1,2-b]furan-2(9bH)-one] | 1.1 µM | 
8 | CC1=C2[C@@H]3OC(=O)C(CN4CCN(Cc5ccccc5)CC4)C3(O)CC[C@@]2(C)CCC1 (stereo partly drawn) [Compound of example 27, (5aR,9bS)-3-((4-Benzylpiperazin-1-yl)methyl)-3a-hydroxy-5a,9-dimethyl-3,3a,4,5,5a,6,7,8-octahydronaphtho[1,2-b]furan-2(9bH)-one] | 0.3 µM | 
9 | CC1=C2[C@@H]3OC(=O)C(CN4CC[S+]([O-])CC4)C3(O)CC[C@@]2(C)CCC1 (stereo partly drawn) [Compound of example 25, (5aR,9bS)-3a-Hydroxy-5a,9-dimethyl-3-(thiomorpholino-1-oxide-methyl)-3,3a,4,5,5a,6,7,8-octahydronaphtho[1,2-b]furan-2(9bH)-one] |  | IC50 (TNF-α): 3.3 µM

More lines, main results first:

Row | IC50 (TNF-α; Homo sapiens, PBMC) | SMILES | other results
10 | 0.6 µM | CC1=C2[C@@H]3OC(=O)C(CN4CCN(CC5C(=O)O[C@H]6C7=C(C)CCC[C@]7(C)CCC56O)CC4)C3(O)CC[C@]2(C)CCC1 (stereo partly drawn) [Compound of example 54, (5aS,9bS)-3a-Hydroxy-3-((4-(((5aR,9bS)-3a-hydroxy-5a,9-dimethyl-2-oxo-2,3,3a,4,5,5a,6,7,8,9b-decahydronaphtho[1,2-b]furan-3-yl)methyl)piperazin-1-yl)methyl)-5a,9-dimethyl-3,3a,4,5,5a,6,7,8-octahydronaphtho[1,2-b]furan-2(9bH)-one] | IC50 (IL-6; Homo sapiens): 2.1 µM; IC50 (IL-8; Homo sapiens): 11.7 µM; IC50 (IL-1β; Homo sapiens): 0.2 µM
11 | 0.8 µM | COc1cc(CN2CCN(CC3C(=O)O[C@H]4C5=C(C)CCC[C@]5(C)CCC34O)CC2)c(CO)c(OC)c1 (stereo partly drawn) [Compound of example 38, (5aR,9bS)-3a-hydroxy-3-((4-(2-(hydroxymethyl)-3,5-dimethoxybenzyl)piperazin-1-yl)methyl)-5a,9-dimethyl-3,3a,4,5,5a,6,7,8-octahydronaphtho[1,2-b]furan-2(9bH)-one] | 
12 | 0.2 µM | CC1=C2[C@@H]3OC(=O)C(CN(C)CC(O)c4ccc(O)cc4)C3(O)CC[C@@]2(C)CCC1 (stereo partly drawn) [Compound of example 60, (5aR,9bS)-3a-Hydroxy-3-(((2-hydroxy-2-(4-hydroxyphenyl)ethyl)(methyl)amino)methyl)-5a,9-dimethyl-3,3a,4,5,5a,6,7,8-octahydronaphtho[1,2-b]furan-2(9bH)-one] | 
13 | 1.2 µM | CC1=C2[C@H]3OC(=O)C(CNCC4C(=O)O[C@H]5C6=C(C)CCC[C@]6(C)CCC45O)C3(O)CC[C@]2(C)CCC1 (stereo partly drawn) [Compound of example 55, (5aS,9bR)-3a-Hydroxy-3-((((5aR,9bS)-3a-hydroxy-5a,9-dimethyl-2-oxo-2,3,3a,4,5,5a,6,7,8,9b-decahydronaphtho[1,2-b]furan-3-yl)methylamino)methyl)-5a,9-dimethyl-3,3a,4,5,5a,6,7,8-octahydronaphtho[1,2-b]furan-2(9bH)-one hydrochloride] | IC50 (IL-6; Homo sapiens): 3.1 µM; IC50 (IL-8; Homo sapiens): 29 µM; IC50 (IL-1β; Homo sapiens): 0.31 µM
14 | 0.7 µM | CCOC(=O)N1CCN(CC2C(=O)O[C@H]3C4=C(C)CCC[C@]4(C)CCC23O)CC1 (stereo partly drawn) [Compound of example 48, Ethyl 4-(((5aR,9bS)-3a-hydroxy-5a,9-dimethyl-2-oxo-2,3,3a,4,5,5a,6,7,8,9b-decahydronaphtho[1,2-b]furan-3-yl)methyl)piperazine-1-carboxylate hydrochloride] | 
15 | 2 µM | COC(=O)CNCC1C(=O)O[C@H]2C3=C(C)CCC[C@]3(C)CCC12O (stereo partly drawn) [Compound of example 58, Methyl 2-(((5aR,9bS)-3a-hydroxy-5a,9-dimethyl-2-oxo-2,3,3a,4,5,5a,6,7,8,9b-decahydronaphtho[1,2-b]furan-3-yl)methylamino)acetate] | 
16 | 0.4 µM | CC1=C2[C@@H]3OC(=O)C(CNC4C(O)C(O)C(CO)O[C@H]4O)C3(O)CC[C@@]2(C)CCC1 (stereo partly drawn) [Compound of example 59, (5aR,9bS)-3a-Hydroxy-5a,9-dimethyl-3-(((2R)-2,4,5-trihydroxy-6-(hydroxymethyl)tetrahydro-2H-pyran-3-ylamino)methyl)-3,3a,4,5,5a,6,7,8-octahydronaphtho[1,2-b]furan-2(9bH)-one] | 
17 | 0.8 µM | CC1=C2[C@@H]3OC(=O)C(CN4CCN(c5ccccn5)CC4)C3(O)CC[C@@]2(C)CCC1 (stereo partly drawn) [Compound of example 53, (5aR,9bS)-3a-Hydroxy-5a,9-dimethyl-3-((4-(pyridin-2-yl)piperazin-1-yl)methyl)-3,3a,4,5,5a,6,7,8-octahydronaphtho[1,2-b]furan-2(9bH)-one] | 
